# ChEMBL document CHEMBL5154678, “Lysine Stapling Screening Provides Stable and Low Toxic Cationic Antimicrobial Peptides Combating Multidrug-Resistant Bacteria In Vitro and In Vivo” (J Med Chem, 2022)
# Starred links: 1 amine or outer side, 2 acyl side, 3 side chain; linkers in the order of their positions; H or OH if unused. Positions of bridges follow the written chain, without caps; N, C: chain ends. Non-standard residues stand in square brackets, D forms with d. Residues, ends and D or L forms follow the SMILES beside them. X1 = O=C([C@H](CCCCNCC=[*:3])N[*:1])[*:2]
# Key:
# Staphylococcus aureus [1] = assay: Antibacterial activity against Staphylococcus aureus BNCC 186335 assessed as inhibition of bacterial growth incubated for 16 hrs by broth microdilution method; assay type: functional
# Erythrocyte = assay: Hemolytic activity against human RBC assessed as concentration required to cause 10% hemolysis; assay type: toxicity, cell-based
# Listeria monocytogenes = assay: Antibacterial activity against Listeria monocytogenes assessed as inhibition of bacterial growth incubated for 16 hrs by broth microdilution method; assay type: functional
# Pseudomonas aeruginosa = assay: Antibacterial activity against Pseudomonas aeruginosa BNCC 125486 assessed as inhibition of bacterial growth incubated for 16 hrs by broth microdilution method; assay type: functional
# Escherichia coli [2] = assay: Antibacterial activity against cephalosporin-resistant Escherichia coli BNCC 133264 assessed as inhibition of bacterial growth incubated for 16 hrs by broth microdilution method; assay type: functional
# HEK-293T = assay: Cytotoxicity against human HEK293T cells assessed as cell survival rate at 8 to 128 Ug/ml incubated for 24 hrs by MTT assay relative to control; assay type: toxicity, cell-based; settings: dose 8-128 µg/ml
# Escherichia coli [3] = assay: Antibacterial activity against Escherichia coli BNCC 133264 assessed as inhibition of bacterial growth incubated for 16 hrs by broth microdilution method; assay type: functional
# Staphylococcus aureus [4] = assay: Antibacterial activity against methicillin-resistant Staphylococcus aureus assessed as inhibition of bacterial growth incubated for 16 hrs by broth microdilution method; assay type: functional
compound,measurement,setting,value
CC[C@H](C)[C@@H]1NC(=O)[C@@H](NC(=O)[C@H](CC(N)=O)NC(=O)[C@H](CC(C)C)NC(=O)[C@@H](NC(=O)[C@H](CCCCN)NC(=O)[C@@H]2CCCN2)[C@@H](C)CC)CCCCNC/C=C/CNCCCC[C@@H](C(=O)N[C@H](C(=O)N[C@@H](CC(C)C)C(=O)N[C@@H](CCCNC(=N)N)C(=O)N[C@@H](CC(C)C)C(=O)N[C@@H](C)C(=O)N[C@@H](C)C(=O)N[C@@H](C)C(=O)N[C@@H](Cc2ccccc2)C(=O)N[C@@H](CCCCN)C(N)=O)[C@@H](C)CC)NC(=O)CNC(=O)[C@H](CC(C)C)NC1=O (H-PKILN[X1]ILG[X1]ILRLAAAFK-NH2; staple (E) 6-10),MIC,Staphylococcus aureus [1],2 µg/mL
same,MHC,Erythrocyte,16 µg/mL
same,MIC,Listeria monocytogenes,2 µg/mL
same,MIC,Pseudomonas aeruginosa,16 µg/mL
same,MIC,Escherichia coli [2],8 µg/mL
same,Activity,HEK-293T,Non-Toxic
same,MIC,Escherichia coli [3],4 µg/mL
same,MIC,Staphylococcus aureus [4],4 µg/mL
CC(C)C[C@H](NC(=O)[C@H](C)NC(=O)[C@H](CCCCN)NC(=O)[C@H](C)NC(=O)[C@H](C)NC(=O)CNC(=O)[C@H](CCCCN)NC(=O)[C@H](CC(C)C)NC(=O)[C@H](CC(C)C)NC(=O)[C@H](CC(=O)O)NC(=O)[C@H](CCCCN)NC(=O)[C@H](Cc1ccccc1)NC(=O)CN)C(=O)N[C@H](C(=O)N[C@@H](CCCCN)C(=O)N[C@H](C(=O)N[C@H](C(=O)N[C@@H](CC(C)C)C(=O)N[C@@H](Cc1ccccc1)C(N)=O)C(C)C)[C@@H](C)O)C(C)C [Ascaphin-8] (H-GFKDLLKGAAKALVKTVLF-NH2),MIC,Staphylococcus aureus [1],2 µg/mL
same,MHC,Erythrocyte,32 µg/mL
same,MIC,Listeria monocytogenes,2 µg/mL
same,MIC,Pseudomonas aeruginosa,16 µg/mL
same,MIC,Escherichia coli [2],32 µg/mL
same,Activity,HEK-293T,Toxic
same,MIC,Escherichia coli [3],4 µg/mL
same,MIC,Staphylococcus aureus [4],16 µg/mL
CC[C@H](C)[C@H](NC(=O)[C@H](CCCCN)NC(=O)[C@H](CC(N)=O)NC(=O)[C@H](CC(C)C)NC(=O)[C@@H](NC(=O)[C@H](CCCCN)NC(=O)[C@@H]1CCCN1)[C@@H](C)CC)C(=O)N[C@@H](CC(C)C)C(=O)NCC(=O)N[C@@H](CCCCN)C(=O)N[C@H](C(=O)N[C@@H](CC(C)C)C(=O)N[C@@H](CCCNC(=N)N)C(=O)N[C@@H](CC(C)C)C(=O)N[C@@H](C)C(=O)N[C@@H](C)C(=O)N[C@@H](C)C(=O)N[C@@H](Cc1ccccc1)C(=O)N[C@@H](CCCCN)C(N)=O)[C@@H](C)CC (H-PKILNKILGKILRLAAAFK-NH2),MIC,Staphylococcus aureus [1],2 µg/mL
same,MHC,Erythrocyte,16 µg/mL
same,MIC,Listeria monocytogenes,4 µg/mL
same,MIC,Pseudomonas aeruginosa,4 µg/mL
same,MIC,Escherichia coli [2],4 µg/mL
same,MIC,Escherichia coli [3],4 µg/mL
same,MIC,Staphylococcus aureus [4],4 µg/mL
CC(C)C[C@H](NC(=O)[C@H](C)NC(=O)[C@@H]1CCCCNC/C=C/CNCCCC[C@H](NC(=O)[C@H](CC(C)C)NC(=O)[C@H](CC(C)C)NC(=O)[C@H](CC(=O)O)NC(=O)[C@H](CCCCN)NC(=O)[C@H](Cc2ccccc2)NC(=O)CN)C(=O)NCC(=O)N[C@@H](C)C(=O)N[C@@H](C)C(=O)N1)C(=O)N[C@H](C(=O)N[C@@H](CCCCN)C(=O)N[C@H](C(=O)N[C@H](C(=O)N[C@@H](CC(C)C)C(=O)N[C@@H](Cc1ccccc1)C(N)=O)C(C)C)[C@@H](C)O)C(C)C (H-GFKDLL[X1]GAA[X1]ALVKTVLF-NH2; staple (E) 7-11),MIC,Staphylococcus aureus [1],2 µg/mL
same,MHC,Erythrocyte,32 µg/mL
same,MIC,Listeria monocytogenes,8 µg/mL
same,MIC,Pseudomonas aeruginosa,32 µg/mL
same,MIC,Escherichia coli [2],32 µg/mL
same,MIC,Escherichia coli [3],16 µg/mL
same,MIC,Staphylococcus aureus [4],8 µg/mL
CC[C@H](C)[C@H](NC(=O)[C@H](CCCCN)NC(=O)[C@H](CCCNC(=N)N)NC(=O)[C@@H](NC(=O)[C@H](CC(C)C)NC(=O)[C@H](CCCCN)NC(=O)[C@H](CC(C)C)NC(=O)[C@@H](NC(=O)[C@H](CCCCN)NC(=O)CNC(=O)[C@H](Cc1ccccc1)NC(=O)[C@@H](N)Cc1ccccc1)C(C)C)[C@@H](C)CC)C(=O)N[C@@H](Cc1ccccc1)C(N)=O (H-FFGKVLKLIRKIF-NH2),MIC,Staphylococcus aureus [1],64 µg/mL
same,MHC,Erythrocyte,16 µg/mL
same,MIC,Listeria monocytogenes,8 µg/mL
same,MIC,Pseudomonas aeruginosa,> 128 µg/mL
same,MIC,Escherichia coli [3],> 128 µg/mL
same,MIC,Staphylococcus aureus [4],64 µg/mL
CC(C)C[C@H](NC(=O)[C@H](C)NC(=O)[C@H](CCCCN)NC(=O)[C@H](C)NC(=O)[C@H](C)NC(=O)CNC(=O)[C@@H]1CCCCNC/C=C/CNCCCC[C@H](NC(=O)[C@H](Cc2ccccc2)NC(=O)CN)C(=O)N[C@@H](CC(=O)O)C(=O)N[C@@H](CC(C)C)C(=O)N[C@@H](CC(C)C)C(=O)N1)C(=O)N[C@H](C(=O)N[C@@H](CCCCN)C(=O)N[C@H](C(=O)N[C@H](C(=O)N[C@@H](CC(C)C)C(=O)N[C@@H](Cc1ccccc1)C(N)=O)C(C)C)[C@@H](C)O)C(C)C (H-GF[X1]DLL[X1]GAAKALVKTVLF-NH2; staple (E) 3-7),MIC,Staphylococcus aureus [1],4 µg/mL
same,MHC,Erythrocyte,32 µg/mL
same,MIC,Listeria monocytogenes,16 µg/mL
same,MIC,Pseudomonas aeruginosa,128 µg/mL
same,MIC,Escherichia coli [2],32 µg/mL
same,Activity,HEK-293T,Toxic
same,MIC,Escherichia coli [3],16 µg/mL
same,MIC,Staphylococcus aureus [4],16 µg/mL
CN[C@H](CC(C)C)C(=O)N[C@H]1C(=O)N[C@@H](CC(N)=O)C(=O)N[C@H]2C(=O)N[C@H]3C(=O)N[C@H](C(=O)N[C@H](C(=O)O)c4cc(O)cc(O)c4-c4cc3ccc4O)[C@H](O)c3ccc(c(Cl)c3)Oc3cc2cc(c3O[C@@H]2O[C@H](CO)[C@@H](O)[C@H](O)[C@H]2O[C@H]2C[C@](C)(N)[C@H](O)[C@H](C)O2)Oc2ccc(cc2Cl)[C@H]1O [VANCOMYCIN],MIC,Pseudomonas aeruginosa,> 128 µg/mL
same,MIC,Escherichia coli [2],> 128 µg/mL
same,MIC,Escherichia coli [3],> 128 µg/mL
CCN1CCN(C(=O)N[C@@H](C(=O)N[C@@H]2C(=O)N3C(C(=O)[O-])=C(CSc4nnnn4C)CS[C@H]23)c2ccc(O)cc2)C(=O)C1=O.[Na+] [CEFOPERAZONE SODIUM],MIC,Staphylococcus aureus [1],0.5 µg/mL
same,MIC,Listeria monocytogenes,8 µg/mL
same,MIC,Pseudomonas aeruginosa,4 µg/mL
same,MIC,Escherichia coli [2],> 128 µg/mL
same,MIC,Escherichia coli [3],0.125 µg/mL
same,MIC,Staphylococcus aureus [4],> 128 µg/mL
CC(C)C[C@@H]1NC(=O)[C@H](C)NC(=O)[C@@H](NC(=O)[C@H](C)NC(=O)[C@H](C)NC(=O)CNC(=O)[C@H](CCCCN)NC(=O)[C@H](CC(C)C)NC(=O)[C@H](CC(C)C)NC(=O)[C@H](CC(=O)O)NC(=O)[C@H](CCCCN)NC(=O)[C@H](Cc2ccccc2)NC(=O)CN)CCCCNC/C=C/CNCCCC[C@@H](C(=O)N[C@H](C(=O)N[C@H](C(=O)N[C@@H](CC(C)C)C(=O)N[C@@H](Cc2ccccc2)C(N)=O)C(C)C)[C@@H](C)O)NC(=O)[C@H](C(C)C)NC1=O (H-GFKDLLKGAA[X1]ALV[X1]TVLF-NH2; staple (E) 11-15),MIC,Staphylococcus aureus [1],2 µg/mL
same,MHC,Erythrocyte,32 µg/mL
same,MIC,Listeria monocytogenes,4 µg/mL
same,MIC,Pseudomonas aeruginosa,128 µg/mL
same,MIC,Escherichia coli [2],16 µg/mL
same,Activity,HEK-293T,Toxic
same,MIC,Escherichia coli [3],8 µg/mL
same,MIC,Staphylococcus aureus [4],8 µg/mL
CC[C@H](C)[C@H](NC(=O)[C@@H]1CCCCNC/C=C/CNCCCC[C@H](NC(=O)[C@H](CC(C)C)NC(=O)[C@@H](NC(=O)[C@H](CO)NC(=O)CNC(=O)[C@H](Cc2ccccc2)NC(=O)[C@@H](N)Cc2ccccc2)C(C)C)C(=O)N[C@@H](CC(C)C)C(=O)N[C@@H]([C@@H](C)CC)C(=O)N2CCC[C@H]2C(=O)N1)C(=O)N[C@@H](CC(C)C)C(N)=O (H-FFGSVL[X1]LIP[X1]IL-NH2; staple (E) 7-11),MIC,Staphylococcus aureus [1],4 µg/mL
same,MHC,Erythrocyte,32 µg/mL
same,MIC,Listeria monocytogenes,4 µg/mL
same,MIC,Pseudomonas aeruginosa,> 128 µg/mL
same,MIC,Escherichia coli [2],128 µg/mL
same,Activity,HEK-293T,Toxic
same,MIC,Escherichia coli [3],64 µg/mL
same,MIC,Staphylococcus aureus [4],4 µg/mL
CC[C@H](C)[C@H](NC(=O)[C@@H]1CCCCNC/C=C/CNCCCC[C@H](NC(=O)[C@@H]2CCCN2)C(=O)N[C@@H]([C@@H](C)CC)C(=O)N[C@@H](CC(C)C)C(=O)N[C@@H](CC(N)=O)C(=O)N1)C(=O)N[C@@H](CC(C)C)C(=O)NCC(=O)N[C@@H](CCCCN)C(=O)N[C@H](C(=O)N[C@@H](CC(C)C)C(=O)N[C@@H](CCCNC(=N)N)C(=O)N[C@@H](CC(C)C)C(=O)N[C@@H](C)C(=O)N[C@@H](C)C(=O)N[C@@H](C)C(=O)N[C@@H](Cc1ccccc1)C(=O)N[C@@H](CCCCN)C(N)=O)[C@@H](C)CC (H-P[X1]ILN[X1]ILGKILRLAAAFK-NH2; staple (E) 2-6),MIC,Staphylococcus aureus [1],4 µg/mL
same,MHC,Erythrocyte,16 µg/mL
same,MIC,Listeria monocytogenes,4 µg/mL
same,MIC,Pseudomonas aeruginosa,128 µg/mL
same,MIC,Escherichia coli [2],16 µg/mL
same,Activity,HEK-293T,Toxic
same,MIC,Escherichia coli [3],16 µg/mL
same,MIC,Staphylococcus aureus [4],4 µg/mL
CC[C@H](C)[C@H](NC(=O)[C@H](CCCCN)NC(=O)[C@@H]1CCCN1C(=O)[C@@H](NC(=O)[C@H](CC(C)C)NC(=O)[C@H](CCCCN)NC(=O)[C@H](CC(C)C)NC(=O)[C@@H](NC(=O)[C@H](CO)NC(=O)CNC(=O)[C@H](Cc1ccccc1)NC(=O)[C@@H](N)Cc1ccccc1)C(C)C)[C@@H](C)CC)C(=O)N[C@@H](CC(C)C)C(N)=O (H-FFGSVLKLIPKIL-NH2),MIC,Staphylococcus aureus [1],2 µg/mL
same,MHC,Erythrocyte,64 µg/mL
same,MIC,Listeria monocytogenes,2 µg/mL
same,MIC,Pseudomonas aeruginosa,> 128 µg/mL
same,MIC,Escherichia coli [2],32 µg/mL
same,MIC,Escherichia coli [3],64 µg/mL
same,MIC,Staphylococcus aureus [4],2 µg/mL
CC[C@H](C)[C@H](NC(=O)[C@@H]1CCCCNC/C=C/CNCCCC[C@H](NC(=O)[C@H](CC(C)C)NC(=O)[C@@H](NC(=O)[C@H](CCCCN)NC(=O)CNC(=O)[C@H](Cc2ccccc2)NC(=O)[C@@H](N)Cc2ccccc2)C(C)C)C(=O)N[C@@H](CC(C)C)C(=O)N[C@@H]([C@@H](C)CC)C(=O)N[C@@H](CCCNC(=N)N)C(=O)N1)C(=O)N[C@@H](Cc1ccccc1)C(N)=O (H-FFGKVL[X1]LIR[X1]IF-NH2; staple (E) 7-11),MIC,Staphylococcus aureus [1],16 µg/mL
same,MHC,Erythrocyte,16 µg/mL
same,MIC,Listeria monocytogenes,8 µg/mL
same,MIC,Pseudomonas aeruginosa,> 128 µg/mL
same,MIC,Escherichia coli [2],128 µg/mL
same,Activity,HEK-293T,Toxic
same,MIC,Escherichia coli [3],128 µg/mL
same,MIC,Staphylococcus aureus [4],32 µg/mL
